Tested on: SW480
Assay: Inhibition of Wnt/beta-catenin signaling pathway in human SW480 cells assessed as dvl1 protein expression at 5 uM after 24 hrs by Western blotting analysis relative to vehicle-treated control

`COc1cc([C@H]2Oc3ccc(-c4cc(=O)c5c(O)cc(O)cc5o4)cc3O[C@@H]2CO)ccc1O` (relative stereo) was tested, and the “fold change (FC)” value was 1.

From ChEMBL document CHEMBL2440042, “Anti-proliferative activity of hydnocarpin, a natural lignan, is associated with the suppression of Wnt/β-catenin signaling pathway in colon cancer cells” (Bioorg Med Chem Lett, 2013)
